{"source": "patent US12145915B1", "about": "(priority 2023, dated 2024)", "key": {"[1]": {"test_system": "MDR strain of Mycobacterium tuberculosis", "test": "microbe, parasite or virus in culture", "assay_type": "cell-based", "details": "read-out: Anti-tubercular activity against Mycobacterium tuberculosis (μg/mL) MDR (MIC)"}, "[2]": {"test_system": "XDR strain of Mycobacterium tuberculosis", "test": "microbe, parasite or virus in culture", "assay_type": "cell-based", "details": "read-out: Anti-tubercular activity against Mycobacterium tuberculosis (μg/mL) XDR (MIC)"}}}
{"smiles": "Cc1nc(-c2ccc(OCC(C)C)c(C#N)c2)sc1C(=O)N/N=C/c1ccc(F)c(Oc2ccccc2)c1", "note": "[KNV-TZL1, (E)-2-(3-Cyano-4-isobutoxyphenyl)-N-(4-fluoro-3-phenoxybenzylidene)-4-methylthiazole-5-carbohydrazide]", "values": [{"measurement": "MIC", "setting": "[1]", "value": 32, "unit": "µg/mL"}, {"measurement": "MIC", "setting": "[2]", "value": 128, "unit": "µg/mL"}]}
{"smiles": "COc1cc(/C=N/NC(=O)c2sc(-c3ccc(OCC(C)C)c(C#N)c3)nc2C)ccc1O", "note": "[KNV-TZL2, (E)-2-(3-Cyano-4-isobutoxyphenyl)-N-(4-hydroxy-3-methoxybenzylidene)-4-methylthiazole-5-carbohydrazide]", "values": [{"measurement": "MIC", "setting": "[1]", "value": 64, "unit": "µg/mL"}, {"measurement": "MIC", "setting": "[2]", "value": 64, "unit": "µg/mL"}]}
